Values of other authors, collected in patent publication US20130143829A1, “Topical Combination Formulations of Macrocyclic Lactones with Synthetic Pyrethroids” (priority 2011, published 2013).

Details: in vivo

eprinomectin
Milk to plasma partition ratio: ~0.2
